Test results: patent US7557107B2, “Farnesyl protein transferase inhibitors as antitumor agents” (Schering Coporation, priority 2003, dated 2009)
“And” between values parts separate entries of the source, which are not always exact repeats. Identical values can stand only once.

How the values were obtained:
[1] = molecular target: purified human farnesyl protein transferase (Homo sapiens, UniProt P49354+P49356); assay: FPT activity: transfer of [3H] farnesyl from [3H] farnesyl pyrophosphate to biotinylated H-ras peptide (SPA); format: biochemical; conditions: 0.03 nM enzyme, 37° C., 60 minutes
Experimental: FPT activity was determined by measuring the transfer of [^3H] farnesyl from [^3H] farnesyl pyrophosphate to a biotinylated peptide derived from the C-terminus of H-ras (biotin-CVLS). The reaction mixture contains: 50 mM Tris pH7.7, 5 mM MgCl2, 5 μM Zn^++, 5 mM DTT, 0.1% Triton-X, 0.05 μM peptide, 0.03 nM purified human farnesyl protein transferase, 0.180 μM [^3H] farnesyl pyrophosphate, plus the indicated concentration of tricyclic compound or vehicle control in a total volume of 100 μl. The reaction was incubated in a yortemp shaking incubator at 37° C., 45 RPM for 60 minutes and stopped with 150 μl of 0.25 M EDTA containing 0.5% BSA and 1.3 mg/ml Streptavidin SPA beads. Radioactivity was measured in a Wallach 1450 Microbeta liquid scintillation counter. Percent inhibition was calculated relative to the vehicle control.

Human tumor cells = assay: Soft Agar Assay (anchorage-independent growth); format: cell-based; conditions: colony outgrowth 10-16 days, MTT stain
Experimental: Anchorage-independent growth is a characteristic of tumorigenic cell lines. Human tumor cells can be suspended in growth medium containing 0.3% agarose and an indicated concentration of a famesyl transferase inhibitor. The solution can be overlayed onto growth medium solidified with 0.6% agarose containing the same concentration of farnesyl transferase inhibitor as the top layer. After the top layer is solidified, plates can be incubated for 10-16 days at 37° C. under 5% CO2 to allow colony outgrowth. After incubation, the colonies can be stained by overlaying the agar with a solution of MTT (3-[4,5-dimethyl-thiazol-2-yl]-2,5-diphenyltetrazolium bromide, Thiazolyl blue) (1 mg/mL in PBS). Colonies can be counted and the IC50's can be determined.

In the case of `COC1(C(=O)N[C@H](C2=Cc3cccnc3[C@@H](N3CCN(C(=O)OCC(C)(C)C)CC3)c3ccc(Cl)cc32)c2cncn2C)CC1` [Compound 119.1], the IC50 [1] is reported as 0.5 to 5 nM.

In the case of `COCC(=O)N[C@H](C1=Cc2cccnc2[C@@H](N2CCN(C(=O)OC(C)C)CC2)c2ccc(Cl)cc21)c1cncn1C` [Compound 136.1], the IC50 [1] is reported as 0.5 to 5 nM and 0.6 nM and the IC50 (Human tumor cells) is reported as 0.6 nM.

For `CC(C)C1(OC(=O)N2CCN([C@H]3c4ccc(Cl)cc4C([C@@H](NC(=O)OC4(C)CC4)c4cncn4C)=Cc4cccnc43)CC2)CC1` [Compound 118.1], the IC50 [1] was 0.5 to 5 nM.

`Cn1cncc1[C@H](NC(=O)OC1(C)CC1)C1=Cc2cccnc2[C@@H](N2CCN(C(=O)OC3(C)CC3)CC2)c2ccc(Cl)cc21` [Compound 108.1] was tested, and the IC50 [1] was 0.5 to 5 nM and 1.5 nM and the IC50 (Human tumor cells) was less than 0.5 nM.

Work on `COC1(C(=O)N[C@H](C2=Cc3cccnc3[C@@H](N3CCN(C(=O)OCC4(C)CC4)CC3)c3ccc(Cl)cc32)c2cncn2C)CC1` [Compound 120.1] yielded an IC50 [1] of 0.5 to 5 nM.

`Cn1cncc1[C@H](NC(=O)OC1(C2CC2)CC1)C1=Cc2cccnc2[C@@H](N2CCN(C(=O)OC3CCCC3)CC2)c2ccc(Cl)cc21` [Compound 112.1, 4-{6-[(Bicyclopropyl-1-yloxycarbonylamino)-(3-methyl-3H-imidazol-4-yl)-methyl]-8-chloro-11H-benzo[5,6]cyclohepta[1,2-b]pyridin-11-yl}-piperazine-1-carboxylic acid cyclopentyl ester] showed an IC50 [1] of 0.5 to 5 nM.

`COC1(C(=O)N[C@H](C2=Cc3cccnc3[C@@H](N3CCN(C(=O)OC(C)C)CC3)c3ccc(Cl)cc32)c2cncn2C)CC1` [Compound 152.1, 4-{8-Chloro-6-[[(1-methoxy-cyclopropanecarbonyl)-amino]-(3-methyl-3H-imidazol-4-yl)-methyl]-11H-benzo[5.6]cyclohepta[1,2-b]pyridin-11-yl}-piperazine-1-carboxylic acid isopropyl ester] showed an IC50 [1] of 0.5 to 5 nM.
